The text below walks through data of patent publication US20230309565A1 (priority 2022, published 2023).

The format of data set [1] is physicochemical. The following applies: room temperature; 40-h culture of 0617-T307 in YME media.
The conditions of data set [2]: methanol and chloroform.
Data set [3] has as its system CsPR1. Type of data set: in vivo, citrus. The following applies: foliar spray 10 ppm and 20 ppm; midribs at 0d, 2d, 2w; relative to CsUbi.
Data set [4] concerns Candidatus Liberibacter asiaticus (CLas). Type of data set: in vivo, Duncan grapefruit.
The subject of data set [5] is Liberibacter crescens BT-1. The data set can be described thus: microbe, parasite or virus in culture. Type of data set: cell-based. As to conditions: for inhibition of growth of L. crescens BT1: BM7 medium, 28° C.
Data set [6] concerns CsPR2. Type of data set: in vivo, citrus. The following applies: foliar spray 10 ppm and 20 ppm; midribs at 0d, 2d, 2w; relative to CsUbi.

Converted amounts (≈) assume the structure as drawn.

Consider `CSC1=C(C)C(=O)C(=O)NC1=O` [RejuAgro A], for which, in data set [1], the “present and stable in the culture” value is listed as “at least 4 weeks”. The solubility result in data set [2] was “can be dissolved in methanol and chloroform”. In addition, in data set [3], the “expression of CsPR1” value is listed as “triggered the expressions”. In data set [4] (10 mg/L sprayed on leaves of citrus Huanglongbing positive trees), the “suppression of CLas” value is “effectively suppress”. The “CLas titer in citrus leaves” value in data set [4] (RAA 10 mg/L foliar spray, HLB-positive Duncan grapefruit, untreated control 7.4×10^5) was 2.4×10^5 genome equivalent/g tissue DNA. Further, the “inhibition of growth of L. crescens” value in data set [5] (1 mg/L) is given as “partial inhibition of growth”; in data set [5] (2.5 mg/L, 16 days) it was “inhibition of growth”. Also, the “inhibition of growth of L. crescens BT1” value in data set [5] (10 mg/L), in data set [5] (20 mg/L) and in data set [5] (40 mg/L) was “inhibition of growth” in each case. Besides, in data set [5] (Liberibacter crescens, BT1, read-out: minimal inhibitory concentration (MIC)), the MIC came to 2.5 µg/mL (≈ 13.5 µM). The “expression of CsPR2” value in data set [6] was “triggered the expressions”.

On to `[H]/N=C(/N)N[C@H]1[C@H](O)[C@@H](O)[C@H](O[C@@H]2O[C@@H](C)[C@](O)(C=O)[C@H]2O[C@@H]2O[C@@H](CO)[C@H](O)[C@@H](O)[C@@H]2NC)[C@@H](N/C(N)=N\[H])[C@@H]1O` [streptomycin, reference compound], for which the “inhibition of growth of L. crescens” value in data set [5] (2.5 mg/L, 16 days) is “comparable”.
